Here are results for 14 compounds from PubChem BioAssay (NCI).

Holding throughout (assay): DTP human tumour cell line panel, 48 h
Assay [1] concerns DLD-1 colon.
Assay [2] has as its system SN12C renal.
Assay [3] relates to UACC-62 melanoma.
Assay [4] deals with U251 CNS.
Assay [5] relates to M19-MEL melanoma.
The subject of assay [6] is HT29 colon.
The subject of assay [7] is KM20L2 colon.
In assay [8] the test system is DMS 273 small cell lung.
Assay [9] concerns RXF 393 renal.
In assay [10] the test system is NCI/ADR-RES ovarian.
For assay [11], the system named is NCI-H226 lung.
In assay [12] the test system is BT-549 breast.

Where “and” joins values, the source holds several entries; their conditions need not be identical. Equal entries are not always repeated.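 Method: 48-hour compound exposure of cells in 96-well plates, five concentrations, linear interpolation of endpoints. At the GI50, growth is halved. TGI denotes the concentration required for complete inhibition of growth.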 Bounds are passed on as bounds.

By TGI is commonly meant the concentration at which net growth stops. Consider `COc1ccc(C2C(C(=O)O)=C(COC(C)=O)Oc3cc4c(cc32)OCO4)cc1` (stereo unspecified), for which the TGI in [1], in assay [2], in assay [3], in [4], in assay [5] and in assay [6] was > 100 µM each time. The TGI in assay [7], in assay [8] and in [9] was > 100 µM throughout.
In general, GI50 refers to the concentration that inhibits growth by half. In the case of `Cc1cc(=O)c2c(O)c3c(O)cc(O)c4c5c(O)cc(O)c6c(O)c7c(=O)cc(C)c8c1c2c(c34)c(c65)c78`, the concentration for total growth inhibition (TGI) in assay [1] is 47.5 µM; in assay [2], > 100 µM; in assay [3] it was > 100 µM; in assay [10], > 100 µM; in [4], > 100 µM; in [11] it was > 100 µM and 44.3 µM. Also, the total growth inhibition concentration (TGI) was > 63.6 µM in assay [5]; > 100 µM and 43.2 µM in assay [6]; > 100 µM in assay [12]; 49.2 µM in assay [7]; > 100 µM in assay [8]; 88.8 µM in assay [9]. The GI50 in [3] is > 100 µM; in assay [10], > 100 µM; in assay [4] it was > 100 µM and 37.3 µM; in [11] it was > 100 µM and 16.3 µM; in [6], > 100 µM and 19.2 µM.
Regarding `CC(C)OC(=O)c1ccc(CCC2=CC(=O)C(Br)=CC2=O)cc1`, the TGI in assay [2] came out at 31.1 µM; in assay [3], 31.3 µM; in assay [10], 37.4 µM; in [4] it was 29.8 µM; in assay [11] it was 71.9 µM; in assay [6] it was 31.8 µM. Also, the results for the TGI in assay [12] and in assay [9] were 16.8 µM and 31.2 µM, respectively.
For the compound `CCOC(OCC)C(CCc1ccccc1)c1c(N)nc(N)[nH]c1=O` (stereo unspecified), the TGI in assay [2], in assay [3], in [10], in assay [4], in assay [11] and in assay [6] was > 100 µM in each case. The TGI in assay [12] and in [9] was > 100 µM in each case.
As to `O=C(c1ccc(Cl)cc1)N1N=C(c2ccc(Cl)cc2)CC1(O)c1cc(F)c(Cl)cc1Cl` (stereo unspecified), the total growth inhibition concentration (TGI) was 73.4 µM in [2]; 63.3 µM in assay [3]; > 100 µM in assay [10]; 37.3 µM in [4]; > 100 µM in [11]; 72.5 µM in assay [6]. Besides, the TGI in [12] and in assay [9] was > 100 µM in each case.
Turning to `N=C(N)n1[nH]c2c(c1=O)CCC2`, the TGI in assay [2], in assay [3], in assay [10], in assay [4], in [11] and in assay [6] was > 100 µM in each case. Further, the TGI in assay [12] and in [9] was > 100 µM throughout.
For the compound `Cc1cc2nc3n(c2cc1C)C(c1c(F)cccc1F)SC3` (stereo unspecified), the concentration for total growth inhibition (TGI) in [2] is 41.9 µM; in assay [3] it was > 10 µM; in assay [10], 34.6 µM; in assay [4], 32.3 µM; in assay [11], 23.8 µM; in [6], 38.9 µM. The TGI in assay [12] amounted to 43.7 µM; in assay [9], 38.8 µM.
Regarding `CC1CCC2c3c([nH]c4ccccc34)C3C(=O)N(C4CCCCC4)C(=O)C3C2C1` (stereo unspecified), the concentration for total growth inhibition (TGI) is > 100 µM in assay [2]; 28.8 µM in [3]; > 100 µM in assay [10]; 25.3 µM in assay [4]; 36 µM in assay [11]; > 100 µM in assay [6]. Also, the results for the TGI in assay [12] and in [9] were 32.7 µM and 28.9 µM, respectively.
Consider `COc1ccc2[nH]c(C(=O)N3CC(CCl)c4ccc([N+](=O)[O-])cc43)cc2c1` (stereo unspecified), for which the TGI in [2], in [3], in [10], in assay [4], in [11] and in assay [6] was > 100 µM in each case. The TGI in assay [12] and in [9] was > 100 µM each time.
In the case of `COCC(=O)[C@]1(O)Cc2c(O)c3c(c(O)c2[C@@H](OC2CC(N)C(O)C(C)O2)C1)C(=O)c1c(OC)cccc1C3=O` (stereo partly specified), the concentration for total growth inhibition (TGI) turned out to be 5.15 µM in assay [1]; 3.42 µM in [2]; 0.255 µM in assay [3]; 1.27 µM in assay [4]; 0.665 µM in [11]; 0.339 µM in assay [5]. The TGI in assay [6] was 0.735 µM; in assay [12], 1.99 µM; in [7], 0.938 µM; in [8], 0.603 µM; in assay [9], 0.267 µM.
Take `C[C@]12CCC(=O)C=C1CC[C@@H]1[C@@H]2C(=O)C[C@@]2(C)[C@H]1CC[C@]2(O)C(=O)CO`: the TGI in [1], in assay [2], in assay [4], in [11], in assay [5] and in [6] was > 100 µM throughout. The TGI in assay [7], in assay [8] and in [9] was > 100 µM throughout.
On to `C1OCN2c3nonc3N3COCN4c5nonc5N1C2C43` (stereo unspecified), for which the TGI in assay [2], in [3], in [10], in assay [4], in assay [11] and in assay [6] was > 100 µM throughout. The TGI in assay [12] and in [9] was > 100 µM in each case.
Turning to `COC(=O)C1=C(OC(=O)/C(=C/c2ccc(Cl)cc2)c2ccccc2)C(C(=O)OC)[C@@]2(O)[C@@H](C(=O)OC)[C@H](C)C[C@@H]1[C@@H]2C(=O)OC` (stereo partly specified), the TGI in [2], in assay [3], in assay [10], in [4], in assay [11] and in assay [6] was > 100 µM throughout. In addition, the TGI in [12] and in assay [9] was > 100 µM each time.
`CCOC(=O)/C=C(/C(=O)OCC)n1c(=O)c(C)cn(C2CC(N=[N+]=[N-])C(CO)O2)c1=O` (stereo unspecified): the TGI in assay [2] was > 100 µM; in assay [3], > 100 µM; in assay [10], > 100 µM; in [4], 37.4 µM; in assay [11] it was > 100 µM; in [6], > 100 µM. Moreover, the TGI in assay [12] is > 100 µM; in assay [9] it was 57.2 µM.
